Reference: PMC10244169, “Psychedelics promote plasticity by directly binding to BDNF receptor TrkB” (Nature Neuroscience, 2023)

How the values were obtained:
pERK = assay: Western blot of ERK phosphorylation in cortical neurons; type: cell-based, rat
Procedure: In a separate set of experiments to examine the effect of 5-HT2A activation, M100907 (100 nM) was administered as a 10 min pretreatment and remained in the medium for the rest of the experiment. Next, cells were lysed and centrifuged. […] The co-immunoprecipitation was carried out as previously described[11],[23],[24] with minor modifications. Briefly, Magnetic Dynabeads Protein G (Invitrogen, 10004D) were coated with anti-TrkB antibody (R&D Systems, AF1494) at 200 ng of antibody per 1 µl of beads in rotation (2 h, 4 °C). Finally, lysates were mixed with the coated beads (100 µg of total protein per 15 µl of beads) and incubated in rotation (overnight, 4 °C).
Proteins were separated according to their molecular weight by SDS–PAGE and transferred to a polyvinylidene fluoride membrane. Membranes were incubated with the following primary antibodies (all 1:1,000 in 3% BSA in TBS-T, overnight, 4 °C): anti-TrkB (R&D Systems, AF1494), anti-β-actin (Sigma-Aldrich, A1978), anti-phospho-mTOR (Cell Signaling Technology, 5536S), anti-phospho-p44/42 MAPK (Erk1/2) (Cell Signaling Technology, 9106S), anti-mTOR (Cell Signaling Technology, 2972S) and anti-p44/42 MAPK (Erk1/2) (Cell Signaling Technology, 9102S). […] Protein bands were visualized using enhanced chemiluminescent substrate (Thermo Scientific, 32132, ECL Plus) and imaged with a charge-coupled device camera (G:BOX, Syngene).

[1] = molecular target: T1, WT:Y433F heterodimers (Y433F^+/−) (Rattus norvegicus, UniProt Q63604, Y433F); assay: Split-luciferase PCA of TrkB dimerization in N2a cells; type: cell-based; conditions: for TrkB dimerization time course, group mean (time 0 = 100): TRKB.Y433F; for TrkB dimerization: WT:Y433F heterodimers; for TrkB dimerization (PCA), group mean (vehicle = 100): Y433F+/-
T1 construct: expressed in transfected cells; host or cells: N2a
How it was run: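 N2a cells transiently co-transfected with split hGLuc-tagged rat TrkB pairs (WT/WT or Y433F/WT) for dimerization; Ketanserin, M100907 or TRKB.FC added 10 min before treatment. Luminescence read after injection of native coelenterazine ([…] final).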

GFP-tagged TrkA.TM = assay: Microscale thermophoresis (MST) in HEK293T lysates; type: binding
GFP-tagged TrkB Y433F = molecular target: T2, GFP-tagged TrkB Y433F (Rattus norvegicus, UniProt Q63604, Y433F); assay: Microscale thermophoresis (MST) in HEK293T lysates; type: binding; conditions: for Bmax (best-fit, 1c/1d) / h (best-fit, 1c/1d): MST Y433F; for binding by MST: Y433F
T2 construct: expressed in transfected cells; host or cells: HEK293T

mice = assay: Repeated forced swimming test (rFST); type: in vivo, mouse
Procedure: rFST was conducted in WT and Y433F^+/− mice as described in literature[33],[92] with minor modifications. Briefly, female and male adult mice were exposed to five consecutive pretest sessions (5 min of duration, 24 h apart). […] The animals were submitted to a 5 min test session 7 days after the drug administration. The apparatus consisted of 5 l glass beaker cylinders (19 cm diameter, 20 cm water column at 23 ± 2 °C). The water was changed between each trial, for each animal. After each session, the animals were dried and kept in a warmed cage before returning to their home cages. The pretest and test sessions were recorded and analyzed by a trained observer blind to treatment and genotype.

[2] = 7 d, saline minus LSD, Bonferroni's multiple comparisons test

T2 sequence (Q63604 32-821 Y433F): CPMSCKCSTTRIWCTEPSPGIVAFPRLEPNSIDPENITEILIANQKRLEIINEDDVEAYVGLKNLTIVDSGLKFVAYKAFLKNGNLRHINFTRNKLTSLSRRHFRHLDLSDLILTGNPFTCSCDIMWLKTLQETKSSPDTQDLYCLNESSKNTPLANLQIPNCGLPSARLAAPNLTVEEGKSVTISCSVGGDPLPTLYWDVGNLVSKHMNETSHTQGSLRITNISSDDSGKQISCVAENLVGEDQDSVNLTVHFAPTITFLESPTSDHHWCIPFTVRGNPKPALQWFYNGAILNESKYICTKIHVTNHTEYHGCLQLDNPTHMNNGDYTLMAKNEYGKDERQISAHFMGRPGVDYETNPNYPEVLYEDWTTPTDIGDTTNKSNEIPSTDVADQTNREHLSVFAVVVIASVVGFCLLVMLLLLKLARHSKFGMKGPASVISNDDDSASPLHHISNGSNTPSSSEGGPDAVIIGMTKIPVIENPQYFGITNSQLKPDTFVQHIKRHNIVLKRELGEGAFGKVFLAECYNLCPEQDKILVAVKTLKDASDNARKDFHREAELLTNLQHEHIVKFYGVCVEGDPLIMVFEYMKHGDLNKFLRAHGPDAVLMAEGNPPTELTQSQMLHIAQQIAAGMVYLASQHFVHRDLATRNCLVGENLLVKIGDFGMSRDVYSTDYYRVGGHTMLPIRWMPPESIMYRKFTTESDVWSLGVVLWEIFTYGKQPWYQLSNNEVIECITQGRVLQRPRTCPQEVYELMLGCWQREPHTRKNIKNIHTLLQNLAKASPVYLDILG
T1 sequence (Q63604 32-821 Y433F): as above
T1 sequence (Q63604 32-821, stated change not applied): as the sequence (Q63604 32-821 Y433F) above, with F402Y counted along it

Compound: CCN(CC)C(=O)C1C=C2c3cccc4[nH]cc(c34)CC2N(C)C1 (stereo not drawn) [LSD, lysergic acid diethylamide]
- phosphorylation of ERK (pERK) (pERK; LSD 100 nM): rapidly increases phosphorylation of ERK (pERK)
- pERK, group mean (5d) (pERK; LSD 100 nM, 5 min, vehicle 100): 167.8
- pERK, group mean (5d) (pERK; LSD 100 nM, 1 h, vehicle 100): 200.7
- pERK, group mean (5d) (pERK; LSD 100 nM, 24 h, vehicle 100): 100.4
- pERK, group mean (5e) (pERK; M100907:LSD (LSD after M100907 pretreatment), vehicle 100): 313.5
- pERK, group mean (5e) (pERK; Vehicle:LSD, vehicle 100): 268.1
- pERK, column mean over timepoints (5d) (pERK; mean of 5 min, 1 h, 24 h, vehicle 100): 156.3
- pERK, column mean of LSD (5e) (pERK; over vehicle and M100907 pretreatment, mean of vehicle 104): 290.8
- TrkB dimerization time course, group mean (time 0 = 100) ([1]; time 15): 129.4
- TrkB dimerization time course, group mean (time 0 = 100) ([1]; time 60): 136.7
- TrkB dimerization time course, group mean (time 0 = 100) ([1]; time 120): 108.3
- TrkB dimerization time course, group mean (time 0 = 100) ([1]; time 240): 108.9
- TrkB dimerization time course, group mean (time 0 = 100) ([1]; time 480): 60.33
- TrkB dimerization [1]: this effect is abolished
- TrkB dimerization (PCA), group mean (vehicle = 100) ([1]; 1nM): 113.3
- TrkB dimerization (PCA), group mean (vehicle = 100) ([1]; 10nM): 121
- TrkB dimerization (PCA), group mean (vehicle = 100) ([1]; 100nM): 118.1
- TrkB dimerization (PCA), group mean (vehicle = 100) ([1]; 1uM): 109.7
- Bmax (best-fit, 1c/1d) (GFP-tagged TrkA.TM): ~ 12873
- h (best-fit, 1c/1d) (GFP-tagged TrkA.TM): 1.641
- Bmax (best-fit, 1c/1d) (GFP-tagged TrkB Y433F): ~ 430.4
- h (best-fit, 1c/1d) (GFP-tagged TrkB Y433F): 1.157
- binding by MST (GFP-tagged TrkB Y433F): but not to Y433F
- Mean, figure 7g (repeated forced swimming test) (mice; 7 d, pretest = 100): 81.36
- Mean Diff., figure 7f, WT+SAL vs. WT+LSD (mice; [2]): 34.99
- Mean Diff., figure 7f, Y433F+/-+SAL vs. Y433F+/-+LSD (mice; [2]): 7.08
- Mean Diff. vs. Vehicle, figure 7g (mice; 7 d, vehicle minus treated, Bonferroni's multiple comparisons test): 13.93
- antidepressant-like effect in rFST (mice; WT mice, 7 days after single administration): sustained antidepressant-like effect
- Mean, figure 7f (repeated forced swimming test) (mice; WT+LSD, 7 d, pretest = 100): 60.98
- Mean, figure 7f (repeated forced swimming test) (mice; Y433F+/-+LSD, 7 d, pretest = 100): 93.99
- antidepressant-like effect in rFST (mice; Y433F^+/− mice): not Y433F^+/− mice

Compound: COc1cccc([C@H](O)C2CCN(CCc3ccc(F)cc3)CC2)c1OC [M100907]
- effect of pretreatment on LSD-induced increase in pERK (pERK; M100907 100 nM): does not prevent LSD-induced increase in pERK
- pERK, group mean (5e) (pERK; M100907:Vehicle (M100907 100 nM alone), vehicle 100): 108
- pERK, row mean of M100907 (5e) (pERK; over vehicle and LSD treatment, mean of vehicle row 184.0): 210.8
- effect of pretreatment on antidepressant-like effect of LSD in rFST (mice; M100907 0.5 mg kg^−1): did not prevent the antidepressant-like effect of LSD

Compound: CN(C)CCc1c[nH]c2cccc(O)c12 [PSI, psilocin]
- TrkB dimerization [1]: this effect is abolished
- TrkB dimerization (PCA), group mean (vehicle = 100) ([1]; 1nM): 110.2
- TrkB dimerization (PCA), group mean (vehicle = 100) ([1]; 10nM): 90.04
- TrkB dimerization (PCA), group mean (vehicle = 100) ([1]; 100nM): 84.39
- TrkB dimerization (PCA), group mean (vehicle = 100) ([1]; 1uM): 73.58
- Bmax (best-fit, 1c/1d) (GFP-tagged TrkA.TM): 151.3
- h (best-fit, 1c/1d) (GFP-tagged TrkA.TM): 1.115
- Bmax (best-fit, 1c/1d) (GFP-tagged TrkB Y433F): 49.04
- h (best-fit, 1c/1d) (GFP-tagged TrkB Y433F): 1.151
- binding by MST (GFP-tagged TrkB Y433F): but not to Y433F
